Assay results taken from PubChem BioAssay (NCI).
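Briefly, cells in 96-well plates were exposed to five compound concentrations for 48 h, and endpoints were estimated by linear interpolation. GI50 = concentration required for 50% inhibition of growth. TGI denotes the concentration required for complete inhibition of growth.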

What was measured:
Experiment in all cases: DTP human tumour cell line panel, 48 h
CAKI-1 renal = test system: CAKI-1 renal
HCT-15 colon = test system: HCT-15 colon
COLO 205 colon = test system: COLO 205 colon
LOX IMVI melanoma = test system: LOX IMVI melanoma
RPMI-8226 leukemia = test system: RPMI-8226 leukemia
NCI-H460 lung = test system: NCI-H460 lung
T-47D breast = test system: T-47D breast
OVCAR-5 ovarian = test system: OVCAR-5 ovarian
HT29 colon = test system: HT29 colon
UACC-62 melanoma = test system: UACC-62 melanoma
SK-MEL-2 melanoma = test system: SK-MEL-2 melanoma
SK-MEL-28 melanoma = test system: SK-MEL-28 melanoma
NCI-H23 lung = test system: NCI-H23 lung
HS 578T breast = test system: HS 578T breast
UO-31 renal = test system: UO-31 renal
PC-3 prostate = test system: PC-3 prostate
HOP-92 NSCLC = test system: HOP-92 NSCLC
HCC-2998 colon = test system: HCC-2998 colon
EKVX NSCLC = test system: EKVX NSCLC
ACHN renal = test system: ACHN renal
M14 melanoma = test system: M14 melanoma
K-562 leukemia = test system: K-562 leukemia
UACC-257 melanoma = test system: UACC-257 melanoma
SK-MEL-5 melanoma = test system: SK-MEL-5 melanoma
OVCAR-4 ovarian = test system: OVCAR-4 ovarian
TK-10 renal = test system: TK-10 renal
SNB-75 CNS = test system: SNB-75 CNS
HL-60(TB) leukemia = test system: HL-60(TB) leukemia
SR leukemia = test system: SR leukemia
U251 CNS = test system: U251 CNS
MOLT-4 leukemia = test system: MOLT-4 leukemia
SF-295 CNS = test system: SF-295 CNS
SNB-19 CNS = test system: SNB-19 CNS
NCI-H226 lung = test system: NCI-H226 lung
DU-145 prostate = test system: DU-145 prostate
RXF 393 renal = test system: RXF 393 renal
MDA-MB-435 = test system: MDA-MB-435
CCRF-CEM leukemia = test system: CCRF-CEM leukemia
HOP-62 NSCLC = test system: HOP-62 NSCLC
KM12 colon = test system: KM12 colon
MDA-MB-231 breast = test system: MDA-MB-231 breast
MCF7 breast = test system: MCF7 breast
A549 NSCLC = test system: A549 NSCLC
NCI/ADR-RES ovarian = test system: NCI/ADR-RES ovarian
OVCAR-8 ovarian = test system: OVCAR-8 ovarian
A498 renal = test system: A498 renal
IGROV1 ovarian = test system: IGROV1 ovarian
SF-268 CNS = test system: SF-268 CNS
SK-OV-3 ovarian = test system: SK-OV-3 ovarian
MALME-3M melanoma = test system: MALME-3M melanoma
SF-539 CNS = test system: SF-539 CNS
SN12C renal = test system: SN12C renal
NCI-H522 lung = test system: NCI-H522 lung
786-0 renal = test system: 786-0 renal
SW-620 colon = test system: SW-620 colon
OVCAR-3 ovarian = test system: OVCAR-3 ovarian
HCT-116 colon = test system: HCT-116 colon

C[C@H](N[C@H]1CCC[C@]1(O)C#Cc1ccc2c(c1)OCO2)c1ccccc1
TGI (CAKI-1 renal): > 25 µM | TGI (HCT-15 colon): > 25 µM | TGI (COLO 205 colon): > 25 µM | TGI (LOX IMVI melanoma): > 25 µM | TGI (RPMI-8226 leukemia): 16.9 µM | TGI (NCI-H460 lung): > 25 µM | TGI (T-47D breast): > 25 µM | TGI (OVCAR-5 ovarian): > 25 µM | TGI (HT29 colon): > 25 µM | TGI (UACC-62 melanoma): > 25 µM | TGI (SK-MEL-2 melanoma): > 25 µM | TGI (SK-MEL-28 melanoma): > 25 µM | TGI (NCI-H23 lung): > 25 µM | TGI (HS 578T breast): > 25 µM | TGI (UO-31 renal): > 25 µM | TGI (PC-3 prostate): > 25 µM | TGI (HOP-92 NSCLC): > 25 µM | TGI (HCC-2998 colon): > 25 µM | TGI (EKVX NSCLC): > 25 µM | TGI (ACHN renal): > 25 µM | TGI (M14 melanoma): > 25 µM | TGI (K-562 leukemia): > 25 µM | TGI (UACC-257 melanoma): > 25 µM | TGI (SK-MEL-5 melanoma): > 25 µM | TGI (OVCAR-4 ovarian): > 25 µM | TGI (TK-10 renal): > 25 µM | TGI (SNB-75 CNS): > 25 µM | TGI (HL-60(TB) leukemia): > 25 µM | TGI (SR leukemia): > 25 µM | TGI (U251 CNS): > 25 µM | TGI (MOLT-4 leukemia): > 25 µM | TGI (SF-295 CNS): > 25 µM | TGI (SNB-19 CNS): > 25 µM | TGI (NCI-H226 lung): > 25 µM | TGI (DU-145 prostate): > 25 µM | TGI (RXF 393 renal): > 25 µM | TGI (MDA-MB-435): > 25 µM | TGI (CCRF-CEM leukemia): > 25 µM | TGI (HOP-62 NSCLC): > 25 µM | TGI (KM12 colon): > 25 µM | TGI (MDA-MB-231 breast): > 25 µM | TGI (MCF7 breast): > 25 µM | TGI (A549 NSCLC): > 25 µM | TGI (NCI/ADR-RES ovarian): > 25 µM | TGI (OVCAR-8 ovarian): > 25 µM | TGI (A498 renal): > 25 µM | TGI (IGROV1 ovarian): > 25 µM | TGI (SF-268 CNS): > 25 µM | TGI (SK-OV-3 ovarian): > 25 µM

CCOC(=O)c1c(Cl)c2c(n1Cc1cccc(OC)c1)-c1oncc1CC2
GI50 (CAKI-1 renal): 1.85 µM | TGI (CAKI-1 renal): > 100 µM | GI50 (HCT-15 colon): 0.836 µM | TGI (HCT-15 colon): > 100 µM | GI50 (MALME-3M melanoma): 0.646 µM | TGI (MALME-3M melanoma): 96.2 µM | GI50 (COLO 205 colon): 1.62 µM | TGI (COLO 205 colon): 11.3 µM | GI50 (LOX IMVI melanoma): 2.51 µM | TGI (LOX IMVI melanoma): > 100 µM | GI50 (RPMI-8226 leukemia): 5.15 µM | TGI (RPMI-8226 leukemia): > 100 µM | GI50 (NCI-H460 lung): 0.659 µM | TGI (NCI-H460 lung): 13.7 µM | GI50 (T-47D breast): 4.41 µM | TGI (T-47D breast): > 100 µM | GI50 (OVCAR-5 ovarian): 10.1 µM | TGI (OVCAR-5 ovarian): > 100 µM | GI50 (HT29 colon): 0.799 µM | TGI (HT29 colon): 15.1 µM | GI50 (UACC-62 melanoma): 0.608 µM | TGI (UACC-62 melanoma): 29.3 µM | GI50 (SF-539 CNS): 2.12 µM | TGI (SF-539 CNS): 10.6 µM | GI50 (SK-MEL-2 melanoma): 5.61 µM | TGI (SK-MEL-2 melanoma): 67.3 µM | GI50 (SK-MEL-28 melanoma): 4.89 µM | TGI (SK-MEL-28 melanoma): > 100 µM | GI50 (NCI-H23 lung): 3.55 µM | TGI (NCI-H23 lung): 60.6 µM | GI50 (HS 578T breast): 1.21 µM | TGI (HS 578T breast): 9.45 µM | GI50 (UO-31 renal): 3.37 µM | TGI (UO-31 renal): 78.6 µM | GI50 (PC-3 prostate): 5.4 µM | TGI (PC-3 prostate): > 100 µM | GI50 (HOP-92 NSCLC): 9.24 µM | TGI (HOP-92 NSCLC): > 100 µM | GI50 (HCC-2998 colon): 3.01 µM | TGI (HCC-2998 colon): 19.6 µM | GI50 (EKVX NSCLC): 3.05 µM | TGI (EKVX NSCLC): > 100 µM | GI50 (ACHN renal): 4.54 µM | TGI (ACHN renal): > 100 µM | GI50 (SN12C renal): 6.04 µM | TGI (SN12C renal): > 100 µM | GI50 (M14 melanoma): 2.07 µM | TGI (M14 melanoma): > 100 µM | GI50 (K-562 leukemia): 0.397 µM | TGI (K-562 leukemia): > 100 µM | GI50 (UACC-257 melanoma): 6.41 µM | TGI (UACC-257 melanoma): > 100 µM | GI50 (SK-MEL-5 melanoma): 1.24 µM | TGI (SK-MEL-5 melanoma): 10.5 µM | GI50 (OVCAR-4 ovarian): 6.46 µM | TGI (OVCAR-4 ovarian): > 100 µM | GI50 (TK-10 renal): 6.59 µM | TGI (TK-10 renal): > 100 µM | GI50 (SNB-75 CNS): 1.61 µM | TGI (SNB-75 CNS): 5.35 µM | GI50 (HL-60(TB) leukemia): 0.557 µM | TGI (HL-60(TB) leukemia): 5.81 µM | GI50 (SR leukemia): 0.444 µM | TGI (SR leukemia): 24.1 µM | GI50 (U251 CNS): 4.75 µM | TGI (U251 CNS): > 100 µM | GI50 (MOLT-4 leukemia): 3.48 µM | TGI (MOLT-4 leukemia): > 100 µM | GI50 (SF-295 CNS): 0.658 µM | TGI (SF-295 CNS): 15.9 µM | GI50 (NCI-H522 lung): 0.351 µM | TGI (NCI-H522 lung): 6.73 µM | GI50 (SNB-19 CNS): 4.41 µM | TGI (SNB-19 CNS): > 100 µM | GI50 (786-0 renal): 4.5 µM | TGI (786-0 renal): 52.7 µM | GI50 (NCI-H226 lung): 6.82 µM | TGI (NCI-H226 lung): > 100 µM | GI50 (SW-620 colon): 0.773 µM | TGI (SW-620 colon): > 100 µM | GI50 (OVCAR-3 ovarian): 0.383 µM | TGI (OVCAR-3 ovarian): 2.92 µM | GI50 (HCT-116 colon): 0.904 µM | TGI (HCT-116 colon): 24.2 µM | GI50 (DU-145 prostate): 2.42 µM | TGI (DU-145 prostate): 27 µM | GI50 (RXF 393 renal): 2.87 µM | TGI (RXF 393 renal): 40.4 µM | GI50 (MDA-MB-435): 0.298 µM | TGI (MDA-MB-435): 15.6 µM | GI50 (CCRF-CEM leukemia): 2.07 µM | TGI (CCRF-CEM leukemia): 84 µM | GI50 (HOP-62 NSCLC): 2.89 µM | TGI (HOP-62 NSCLC): > 100 µM | GI50 (KM12 colon): 0.732 µM | TGI (KM12 colon): 77.9 µM | GI50 (MDA-MB-231 breast): 4.61 µM | TGI (MDA-MB-231 breast): > 100 µM | GI50 (MCF7 breast): 0.62 µM | TGI (MCF7 breast): > 100 µM | GI50 (A549 NSCLC): 5.16 µM | TGI (A549 NSCLC): > 100 µM | GI50 (NCI/ADR-RES ovarian): 0.497 µM | TGI (NCI/ADR-RES ovarian): 6.91 µM | GI50 (OVCAR-8 ovarian): 7.27 µM | TGI (OVCAR-8 ovarian): > 100 µM | GI50 (A498 renal): 0.382 µM | TGI (A498 renal): 5.69 µM | GI50 (IGROV1 ovarian): 1.23 µM | TGI (IGROV1 ovarian): 59 µM | GI50 (SF-268 CNS): 9.31 µM | TGI (SF-268 CNS): > 100 µM | GI50 (SK-OV-3 ovarian): 3.36 µM | TGI (SK-OV-3 ovarian): > 100 µM
